In US7183291B2 (Council of Scientific and Industrial Research, priority 1999, dated 2007):
“And” between values parts separate entries of the source, which are not always exact repeats. Identical values can stand only once.

Legend:
[1] = tested on: P. cynomolgi B gametocytes; test: Gametocytocidal test: infectivity of gametocytes from treated P. cynomolgi infected Rhesus monkeys to An. stephensi mosquitoes; type: in vivo
Protocol: For the gametocytocidal test, batches of 3–4 day old An. Stephensi were allowed to feed on P. cynomolgi infected Rhesus monkeys at appropriate gametocytaemia level. […] […] Mosquitoes were maintained as 26±1° C. under optimal insectary conditions. The infectivity rate and the oocyst counts were recorded on day 8. Mosquitoes were further maintained in the insectary to record the formation of sporozoites and the absence of sporozoites in some of the batches was also ensured by inoculation of mosquito homogenates into native monkeys.

[2] = tested on: developing oocysts of P. cynomolgi; test: Effect on developing oocysts in An. stephensi mosquitoes (sporontocidal/oocysticidal action); type: in vivo; conditions: for % infectivity / No. of mosquitoes infected/dissected / oocyst number gut (Mean ± SD): Day 8 oocyst record
[3] = Methaemoglobin levels in Beagle dogs after 7-day oral treatment; conditions: dog, in vivo, 1.25 mg/kg
Protocol: Colony bred beagle dogs were maintained in the kennel house of the Institute and fed with a standard diet.
Treatment was administered once daily for seven doses (day 0–6), the day of the first dose being day 0. […] 5 ml. blood was collected from beagle dogs on day 0, 3, 7, 13 and 25 using potassium-oxalate crystals as anticoagulant. All the estimations/tests were conducted on the same day of collection of blood. Methaemoglobin was assayed by the method of Evelyn and Malloy (1938, J. Biol. Chem., 126, 655–662).

normal erythrocytes = test: Reduced glutathione (GSH) in normal human erythrocytes after 3 h incubation; type: cell-based
Source text: (§1) Drug induced haemolysis is a serious complication in persons deficient in G-6-PD enzyme. The presence of reduced glutathione (GSH) in erythrocytes control the level of oxidative metabolites. Therefore, drugs, which cause lesser oxidation of GSH level are safe. […] G-6-PD deficiency was detected by the fluorescent spot screening test and confirmed by the enzyme assay method. Heparinised blood samples were collected from each individual and after centrifugation, the packed cells were washed three times with cold saline. […] GSH levels were estimated by the method of Bentler et al [Improved Method for the Determination of Blood Glutathione, J. Lab.

[4] = tested on: G-6-PD deficient erythrocytes; test: Reduced glutathione (GSH) in G-6-PD deficient human erythrocytes after 3 h incubation; type: cell-based; conditions: 25 and 50 μg/ml of PQ and equivalent doses, P<0.001
Source text: as §1

sporozoites = test: Infectivity test: mosquito homogenates inoculated into Rhesus monkeys; type: in vivo, P. cynomolgi; conditions: 11 batches; 1.87, 2.5, 3.75 and 5.00 mg base/kg; up to 60 days of observations
Protocol: For the gametocytocidal test, batches of 3–4 day old An. Stephensi were allowed to feed on P. cynomolgi infected Rhesus monkeys at appropriate gametocytaemia level. One hour after the control (pretreatment) feeding, compound of formula 1 was administered to the monkeys at 0.63, 1.25, 1.87, 2.5, 3.75 and 5.0 mg/kg in a single dose by oral route. Post-treatment feeding of batches of healthy mosquitoes was done at different times (5–48 hours). Mosquitoes were maintained as 26±1° C. under optimal insectary conditions. The infectivity rate and the oocyst counts were recorded on day 8. Mosquitoes were further maintained in the insectary to record the formation of sporozoites and the absence of sporozoites in some of the batches was also ensured by inoculation of mosquito homogenates into native monkeys.
Infectivity tests were carried out to ensure that there was no sporozoite development in the mosquito batches found negative for oocysts on day 8 following their feeding on drug treated monkeys. Homogenates of 40–50 mosquitoes each from 11 batches fed on gametocyte carrying monkeys treated with compound 1 at 1.87, 2.5, 3.75 and 5.00 mg base/kg were inoculated into native Rhesus monkeys.

[5] = 0.63 mg/kg single dose, feeding +5 hr
[6] = 0.63 mg/kg single dose, feeding +24 hr
[7] = 0.63 mg/kg single dose, feeding +48 hr
[8] = 0.63 mg/kg single dose, feeding −1 hr (pre-treatment)
[9] = 1.25 mg/kg single dose, feeding +5 hr
[10] = 1.25 mg/kg single dose, feeding +24 hr
[11] = 1.25 mg/kg single dose, feeding +48 hr
[12] = 1.25 mg/kg single dose, feeding −1 hr (pre-treatment)
[13] = 1.87 mg/kg single dose, feeding +24 hr
[14] = 1.87 mg/kg single dose, feeding +48 hr
[15] = 1.87 mg/kg single dose, feeding −1 hr (pre-treatment)
[16] = 3.75 mg/kg single dose, feeding +4 hr
[17] = 3.75 mg/kg single dose, feeding +5 hr
[18] = 3.75 mg/kg single dose, feeding +24 hr
[19] = 3.75 mg/kg single dose, feeding −1 hr (pre-treatment)
[20] = age of infection 24 hr, 50 mg/kg
[21] = age of infection 48 hr, 10 mg/kg
[22] = age of infection 48 hr, 50 mg/kg
[23] = age of infection 72 hr, 10 mg/kg
[24] = age of infection 72 hr, 50 mg/kg
[25] = age of infection 96 hr, 50 mg/kg
[26] = age of infection in mosquitoes 24 hr, fed on monkey given 10 mg/kg at −7 hr

increase of Met-Hb values [3]: 1.7 fold
concentration at which fall in GSH levels reached statistical significance (normal erythrocytes): 31250 ng/mL
GSH (mg %) Mean ± SE (normal erythrocytes; dose 1.25 μg/ml): 44.08 ± 5.80 mg %
GSH (mg %) Mean ± SE (normal erythrocytes; dose 6.25 μg/ml): 42.50 ± 5.85 mg %
decrease in GSH level compared to controls [4]: statistically significant
melting point: 118 to 120 °C
Structure (SMILES): COc1cc(NC(C)CCCN/C(C)=C2/CCOC2=O)c2ncccc2c1 (stereo not drawn) [compound 1, N^1-(3-ethylidinotetrahydrofuran-2-one)-N^4-(6-methoxy-8-quinolinyl)-1,4-pentanediamine]
% infectivity [1, 5]: (45.1) %
No. of mosquitoes infected/dissected [1, 5]: 23/51
Oocyst No. per gut (Mean ± SD) [1, 5]: 10.22 ± 6.8
% infectivity [1, 6]: (32.61) %
No. of mosquitoes infected/dissected [1, 6]: 15/46
Oocyst No. per gut (Mean ± SD) [1, 6]: 2.93 ± 2.4
Parasitaemia/mm^3 Asexual [1, 6]: 30024 /mm^3
Parasitaemia/mm^3 Gametocytes [1, 6]: 1404 /mm^3
% infectivity [1, 7]: (0) %
No. of mosquitoes infected/dissected [1, 7]: 0/24
Oocyst No. per gut (Mean ± SD) [1, 7]: Nil
Parasitaemia/mm^3 Asexual [1, 7]: 23220 /mm^3
Parasitaemia/mm^3 Gametocytes [1, 7]: 756 /mm^3
% infectivity [1, 8]: (90.0) %
No. of mosquitoes infected/dissected [1, 8]: 27/30
Oocyst No. per gut (Mean ± SD) [1, 8]: 86.74 ± 39.2
Parasitaemia/mm^3 Asexual [1, 8]: 48816 /mm^3
Parasitaemia/mm^3 Gametocytes [1, 8]: 1728 /mm^3
oocyst number and percent infectivity compared to control feedings at −1 hr ([1]; 0.63 mg/kg, +5 h and +24 h post-treatment): significant reduction
sporozoites in salivary gland dissections on day 15 ([1]; 0.63 mg/kg, batches fed +5 h and +24 h): presence of sporozoites
oocysts over the midguts ([1]; 0.63 mg/kg, mosquitoes fed at +48 hr): No oocysts were observed
monkeys with marked oocyst decrease at 4–5 hr and no oocysts or sporozoites in batches fed +24 hr and +48 hr ([1]; 1.25 mg/kg): 2/2
No. of mosquitoes infected/dissected [1, 9]: 12/57 and 15/70
Oocyst No. per gut (Mean ± SD) [1, 9]: 2.17 ± 1.7 and 2.60 ± 1.7
% infectivity [1, 10]: (0) %
No. of mosquitoes infected/dissected [1, 10]: 0/36 and 0/30
Oocyst No. per gut (Mean ± SD) [1, 10]: Nil
% infectivity [1, 11]: (0) %
No. of mosquitoes infected/dissected [1, 11]: 0/24
Oocyst No. per gut (Mean ± SD) [1, 11]: Nil
Parasitaemia/mm^3 Asexual [1, 11]: 15914 /mm^3
Parasitaemia/mm^3 Gametocytes [1, 11]: 109 /mm^3
No. of mosquitoes infected/dissected [1, 12]: 34/38 and 20/47
Oocyst No. per gut (Mean ± SD) [1, 12]: 22.35 ± 11.8 and 14.40 ± 7.29
Parasitaemia/mm^3 Gametocytes [1, 12]: 1895 /mm^3 and 1026 /mm^3
monkeys with marked oocyst decrease at 4–5 hr and no oocysts or sporozoites in batches fed +24 hr and +48 hr ([1]; 1.87 mg/kg): 2/2
No. of mosquitoes infected/dissected ([1]; 1.87 mg/kg single dose, feeding +4 hr): 6/40 and 18/31
% infectivity [1, 13]: (0) %
No. of mosquitoes infected/dissected [1, 13]: 0/27 and 0/38
Oocyst No. per gut (Mean ± SD) [1, 13]: Nil and Nil**
Parasitaemia/mm^3 Gametocytes [1, 13]: 530 /mm^3 and 798 /mm^3
% infectivity [1, 14]: (0) %
No. of mosquitoes infected/dissected [1, 14]: 0/24 and 0/21
Oocyst No. per gut (Mean ± SD) [1, 14]: Nil
Parasitaemia/mm^3 Asexual [1, 14]: 7208 /mm^3 and 5130 /mm^3
Parasitaemia/mm^3 Gametocytes [1, 14]: 212 /mm^3 and 228 /mm^3
No. of mosquitoes infected/dissected [1, 15]: 25/30 and 23/25
Parasitaemia/mm^3 Asexual [1, 15]: 33602 /mm^3 and 61560 /mm^3
Parasitaemia/mm^3 Gametocytes [1, 15]: 1166 /mm^3 and 1026 /mm^3
monkeys with oocyst development completely blocked in batches fed 4–5 hr and +24 hr post-treatment ([1]; 3.75 mg/kg): 5/5
% infectivity [1, 16]: (0) %
No. of mosquitoes infected/dissected [1, 16]: 0/25 and 0/21 and 0/41
Oocyst No. per gut (Mean ± SD) [1, 16]: Nil
% infectivity [1, 17]: (0) %
No. of mosquitoes infected/dissected [1, 17]: 0/30
Oocyst No. per gut (Mean ± SD) [1, 17]: Nil**
% infectivity [1, 18]: (0) %
No. of mosquitoes infected/dissected [1, 18]: 0/28 and 0/21 and 0/30 and 0/27
Oocyst No. per gut (Mean ± SD) [1, 18]: Nil and Nil**
No. of mosquitoes infected/dissected [1, 19]: 26/27 and 15/22 and 33/40 and 22/22
Parasitaemia/mm^3 Asexual [1, 19]: 55728 /mm^3 and 45796 /mm^3 and 68320 /mm^3 and 48336 /mm^3
monkeys with oocyst development completely blocked in batches fed 4–5 hr and +24 hr post-treatment ([1]; 5.0 mg/kg): 3/3
time to render mature gametocytes non-infective to mosquitoes ([1]; 3.75 and 5.00 mg/kg): 4 to 5 h
sporozoites in salivary gland dissections, days 14–20 post infective blood meal ([1]; batches with blocked oocyst development (2.5, 3.75, 5.0 mg/kg)): did not show any sporozoites
sporontocidal/oocysticidal action on 24–96 hr old oocysts ([2]; 10–50 mg/kg): absence of sporontocidal/oocysticidal action
% infectivity [2, 20]: 85.19%
No. of mosquitoes infected/dissected [2, 20]: 23/27
oocyst number gut (Mean ± SD) [2, 20]: 67.00 ± 43.58
% infectivity [2, 21]: 100.0%
No. of mosquitoes infected/dissected [2, 21]: 20/20
oocyst number gut (Mean ± SD) [2, 21]: 133.20 ± 96.22
% infectivity [2, 22]: 78.79%
No. of mosquitoes infected/dissected [2, 22]: 26/33
oocyst number gut (Mean ± SD) [2, 22]: 46.15 ± 36.70
% infectivity [2, 23]: 88.00%
No. of mosquitoes infected/dissected [2, 23]: 22/25
oocyst number gut (Mean ± SD) [2, 23]: 20.36 ± 17.81
% infectivity [2, 24]: 86.21%
No. of mosquitoes infected/dissected [2, 24]: 25/29
oocyst number gut (Mean ± SD) [2, 24]: 27.16 ± 20.60
% infectivity [2, 25]: 69.23%
No. of mosquitoes infected/dissected [2, 25]: 18/26
oocyst number gut (Mean ± SD) [2, 25]: 40.33 ± 27.38
% infectivity [2, 26]: 85.00%
No. of mosquitoes infected/dissected [2, 26]: 17/20
oocyst number gut (Mean ± SD) [2, 26]: 144.47 ± 60.35
monkeys developing infection after inoculation of homogenates of 40–50 mosquitoes from oocyst-negative batches (sporozoites): None
